The source made the active and inactive calls. The calls are words filed in the database; no cut-off is given here.
Assays:
HT-1080 [1] = assay: HIM-PROTAC activity at GPX4/HSP90/E3 ligase in HSP90-knockdown human HT-1080 cells assessed as GPX4 degradation at 1 uM preincubated with KW-2478 for 3 hrs followed by compound addition and measured after 24 hrs by Western blotting analysis; assay type: cell-based
HT-1080 [2] = assay: HIM-PROTAC activity at GPX4/HSP90/E3 ligase in human HT-1080 cells assessed as reduction in GPX4 level incubated for 24 hrs by Western blotting analysis; assay type: cell-based
[3] = Drug uptake in human HT-1080 cells at 5 uM incubated for 6 hrs by LC-MS analysis; assay type: ADME, cell-based; conditions: ht-1080, 6 h

| SMILES | Activity (HT-1080 [1]) | Activity (HT-1080 [2]) | Drug uptake [3] |
| --- | --- | --- | --- |
| COc1c(C)cnc(Cn2cnc3c(NCCC4CCN(C(=O)Cn5cc(COc6ccc(N(C(=O)CCl)C(C(=O)NCCc7ccccc7)c7cccs7)cc6Cl)nn5)CC4)nc(N)nc32)c1C (stereo not drawn) | inactive | Dose-Dependent Effect | – |
| COc1c(C)cnc(Cn2cnc3c(NCCOCCOCCOCCn4cc(COc5ccc(N(C(=O)CCl)C(C(=O)NCCc6ccccc6)c6cccs6)cc5Cl)nn4)nc(N)nc32)c1C (stereo not drawn) | – | – | Active |

— ChEMBL document CHEMBL5608234, “Heat Shock Protein 90 Interactome-Mediated Proteolysis Targeting Chimera (HIM-PROTAC) Degrading Glutathione Peroxidase 4 to Trigger Ferroptosis” (J Med Chem, 2024)
